Measured values: patent US4791215A, “Derivatives of glutamic acid and aspartic acid” (priority 1984, dated 1988)

Legend:
morphine analgesia = test: Increase in analgesia of morphine, Tail Flick Test (Experiment 1); assay type: in vivo, rats; conditions: for percentage variation of latency of pain sensation / M (10-90) ± SE, mean percentage variation of latency: compound 10 mg/kg i.p. + morphine 2 mg/kg; for M (10-90) ± SE, mean percentage variation of latency: mean 10-90 min; for Power ratio with respect to morphine alone: rat, in vivo
Procedure, shortened: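 Tail-flick latency to 75 °C radiant heat, capped at 8 s, measured in male non-fasted rats weighing 150-200 g. Percentage change per animal derived from pre-treatment baseline versus post-drug readings at 10-90 min (10, 20, 30, 45, 60, 90 min).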

[1] = tested on: endogenous opiates analgesia; test: Analgesic activity of endogenous opiates released by transcutaneous shock, Tail Flick Test (Experiment 3); assay type: in vivo, rats
Procedure: Experiment No. 3: Influence of several of the compounds of the invention on the analgesic activities of endogenous opiates released by transcutaneous shock in rats and measured by the Tail Flick Test
The method is that described by Lewis et al. J. Neurosc. 1, 358 […]. Male rats which have not fasted and have a weight of about 200 g are used.
The animals are stressed by the application of a 60 Hz-2.5 mA current to the front leg in pulses of a duration of 1 second every 5 seconds for 20 minutes.
This stress regime induces the release of endogenous opiates.

[2] = tested on: CCK-8 induced contraction of guinea pig gall bladder; test: Anti-CCK activity on gall bladder strips in vitro; conditions: CCK-8 10 ng/ml
Procedure, shortened: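 CCK-8 at 10 ng/ml drove isometric contraction of guinea pig gall bladder strips held at 32 °C in oxygenated Krebs (O2/CO2 95:5). Antagonism was measured at graded compound concentrations and reported as ED50, in μg/ml, for 50% inhibition of the contraction.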

[3] = tested on: enkephalinamide (DALA) analgesia; test: Potentiation of DALA (enkephalinamide) analgesia, i.c.v., Tail Flick Test (Experiment 4); assay type: in vivo, rats; design: scale not given here
Source text: Experiment No. 4: Potentiation of the analgesic activities of enkephalins induced by some of the compounds of the invention. […]

[4] = compound 1 mg/kg iv + stress, 5'
[5] = compound 1 mg/kg iv + stress, 10'
[6] = compound 1 mg/kg iv + stress, 15'
[7] = compound 3 mg/kg iv + stress, 5'
[8] = compound 3 mg/kg iv + stress, 10'
[9] = compound 3 mg/kg iv + stress, 15'

Compound | percentage variation of latency of pain sensation (morphine analgesia; 10') [%] | percentage variation of latency of pain sensation (morphine analgesia; 20') [%] | percentage variation of latency of pain sensation (morphine analgesia; 30') [%] | percentage variation of latency of pain sensation (morphine analgesia; 45') [%] | percentage variation of latency of pain sensation (morphine analgesia; 60') [%] | percentage variation of latency of pain sensation (morphine analgesia; 90') [%] | M (10-90) ± SE, mean percentage variation of latency (morphine analgesia) [%] | Power ratio with respect to morphine alone (morphine analgesia) | ED50 (concentration antagonising 50% of contracting effect of CCK-8) [2] [µg/mL] | other results
CC(C)c1ccc(C(=O)NC(CCC(=O)N2CCCCC2)C(=O)O)cc1 (racemic) [Compound D-17] | 62.3 ± 15 | 92.9 ± 7 | 100 ± 0 | 100 ± 0 | 100 ± 0 | 100 ± 0 | 92.5 ± 15 | 3.10 | > 300 | average latency, Tail Flick [1, 4]: 6.18 ± 0.65 s; average latency, Tail Flick [1, 5]: 7.02 ± 0.76 s; average latency, Tail Flick [1, 6]: 5.31 ± 0.55 s; average latency, Tail Flick [1, 7]: 9.08 ± 0.55 s; average latency, Tail Flick [1, 8]: 9.08 ± 0.80 s; average latency, Tail Flick [1, 9]: 6.08 ± 0.98 s
CCCN(CCC)C(=O)C(CCC(=O)O)NC(=O)c1ccc(C(F)(F)F)cc1 (stereo not shown) [Compound C-39] | 44.9 ± 15 | 100.0 ± 0 | 93.3 ± 7 | 94.4 ± 6 | 85.6 ± 7 | 81.8 ± 10 | 83.3 ± 20 | 2.79 | – | average latency, Tail Flick [1, 4]: 6.3 ± 0.4 s; average latency, Tail Flick [1, 5]: 5.8 ± 0.38 s; average latency, Tail Flick [1, 6]: 4.04 ± 0.36 s; average latency, Tail Flick [1, 7]: 7.54 ± 0.65 s; average latency, Tail Flick [1, 8]: 5.98 ± 0.41 s; average latency, Tail Flick [1, 9]: 5.08 ± 0.6 s
CCCN(CCC)C(=O)C(CCC(=O)O)NC(=O)c1ccc(F)cc1 (stereo not shown) [Compound C-12] | 54.4 ± 16.7 | 76.3 | 61.6 ± 16.0 | 63.9 ± 20.0 | 65.2 ± 17.0 | 11.6 ± 14.0 | 55.5 | 1.86 | 64.7 | –
CCCCN(CCCC)C(=O)C(CCC(=O)O)NC(=O)c1ccc(C)c(C)c1 (stereo not shown) [Compound C-54] | 77.0 ± 10 | 89.1 ± 11 | 100 ± 0 | 99.2 ± 0.8 | 69.6 ± 16 | 63.2 ± 19 | 83.0 ± 15 | 2.78 | 1.2 | –
CSCC[C@H](NC(=O)[C@H](Cc1ccccc1)NC(=O)CNC(=O)[C@@H](C)NC(=O)[C@@H](N)Cc1ccc(O)cc1)C(N)=O [DALA, D-ala-methionine-enkephalinamide, reference compound] | – | – | – | – | – | – | – | – | – | analgesic activity, Tail Flick ([3]; DALA 10 μg/kg ICV alone, 10'): 21.9; analgesic activity, Tail Flick ([3]; DALA 10 μg/kg ICV alone, 20'): 25.9; analgesic activity, Tail Flick ([3]; DALA 10 μg/kg ICV alone, 30'): 26.2; analgesic activity, Tail Flick ([3]; DALA 10 μg/kg ICV alone, 45'): 26.0; analgesic activity, Tail Flick ([3]; DALA 10 μg/kg ICV alone, 60'): 7.3; analgesic activity, Tail Flick ([3]; DALA 10 μg/kg ICV alone, 90'): 5.0; MEAN analgesic activity, Tail Flick ([3]; DALA 10 μg/kg ICV alone): 18.7; analgesic activity, Tail Flick ([3]; DALA 10 mg/kg (ICV) as printed, alone, 10'): 4.1; analgesic activity, Tail Flick ([3]; DALA 10 mg/kg (ICV) as printed, alone, 20'): 6.24; analgesic activity, Tail Flick ([3]; DALA 10 mg/kg (ICV) as printed, alone, 30'): 9.19; analgesic activity, Tail Flick ([3]; DALA 10 mg/kg (ICV) as printed, alone, 45'): 8.29; analgesic activity, Tail Flick ([3]; DALA 10 mg/kg (ICV) as printed, alone, 60'): 6.20; analgesic activity, Tail Flick ([3]; DALA 10 mg/kg (ICV) as printed, alone, 90'): 10.56; MEAN analgesic activity, Tail Flick ([3]; DALA 10 mg/kg (ICV) as printed, alone): 7.51
Cc1ccc(C(=O)NC(CCC(=O)O)C(=O)NC2CCCCC2)cc1C (stereo not shown) [Compound C-47] | 24.5 | 63.5 ± 18 | 52.3 ± 17 | 80.1 ± 22 | 73.2 ± 17 | 49.3 ± 19 | 57.1 ± 20 | 1.92 | 35.1 | –
CCCN(CCC)C(=O)C(CCC(=O)O)NC(=O)c1ccccc1Br (stereo not shown) [Compound C-14] | 36.5 ± 28.4 | 76.0 ± 12.7 | 79.3 ± 10.6 | 77.0 ± 6.7 | 98.3 ± 1.3 | 71.9 ± 13.2 | 73.1 ± 20.0 | 2.45 | 118.4 | –
CCCN(CCC)C(=O)C(CCC(=O)O)NC(=O)c1ccc(Br)cc1 (stereo not shown) [Compound C-15] | 59.8 ± 14.0 | 84.2 ± 9.6 | 78.3 ± 13.5 | 88.7 ± 8.5 | 82.5 ± 12.7 | 54.5 ± 14.7 | 74.7 | 2.51 | > 200 | –
CCCN(CCC)C(=O)C(CCC(=O)O)NC(=O)c1ccccc1I (stereo not shown) [Compound C-17] | 18.9 | 37.0 ± 12.0 | 45.8 ± 18.0 | 41.0 ± 17.0 | 39.3 ± 20.0 | 31.2 ± 18.0 | 35.5 ± 9.5 | 1.19 | > 200 | –
CCCCN(CCCC)C(=O)C(CCC(=O)O)NC(=O)c1cc(Cl)c(Cl)c(Cl)c1 (stereo not shown) [Compound C-11] | 25.2 ± 4.0 | 37.6 ± 16.0 | 50.9 ± 11.0 | 54.4 ± 9.0 | 35.8 | 18.7 ± 10.0 | 37.1 ± 14.0 | 1.24 | 0.85 | –
